Among the data in PubChem BioAssay AID330 (DTP/NCI, 2004) are T/C values, retold here.

This assay concerns P388 leukemia ip, CD2F1 mice, survival T/C. The assay is described as follows: NCI In Vivo Anticancer Drug Screen. Data for tumor model P388 Leukemia (intraperitoneal) in CD2F1 (CDF1) mice. The note with it: endpoint: median survival time, higher = longer survival. A digest of the protocol: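 Mice carrying the transplanted tumor received test compound or vehicle. Survival was recorded in each group, and the value is the treated-group measurement divided by that of the vehicle-treated control group.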

Setting [1] is: dose: 6.25 mg/kg/injection, schedule: Q01DX005 (ip), vehicle: Klucel (hydroxypropylcellulose) (HPC).
Where [2] appears, read: dose: 12.5 mg/kg/injection, schedule: Q01DX005 (ip), vehicle: Klucel (hydroxypropylcellulose) (HPC).
The mark [3] stands for this setting: dose: 60.0 mg/kg/injection, schedule: Q01DX005 (ip), vehicle: saline with Tween-80.
Where [4] appears, read: dose: 120.0 mg/kg/injection, schedule: Q01DX005 (ip), vehicle: saline with Tween-80.
Setting [5] is: dose: 12.5 mg/kg/injection, schedule: Q01DX009 (ip), vehicle: Klucel (hydroxypropylcellulose) (HPC).
Setting [6] is: dose: 50.0 mg/kg/injection, schedule: Q01DX009 (ip), vehicle: Klucel (hydroxypropylcellulose) (HPC).
Where [7] appears, read: dose: 200.0 mg/kg/injection, schedule: Q01DX009 (ip), vehicle: Klucel (hydroxypropylcellulose) (HPC).
The mark [8] stands for this setting: dose: 100.0 mg/kg/injection, schedule: Q01DX009 (ip), vehicle: saline.
[9] abbreviates: dose: 50.0 mg/kg/injection, schedule: Q01DX005 (ip), vehicle: saline with Tween-80.
The mark [10] stands for this setting: dose: 100.0 mg/kg/injection, schedule: Q01DX005 (ip), vehicle: saline with Tween-80.
Setting [11] is: dose: 200.0 mg/kg/injection, schedule: Q01DX005 (ip), vehicle: saline with Tween-80.
Where [12] appears, read: dose: 100.0 mg/kg/injection, schedule: Q01DX009 (ip), vehicle: Klucel (hydroxypropylcellulose) (HPC).
[13] abbreviates: dose: 25.0 mg/kg/injection, schedule: Q01DX005 (ip), vehicle: saline with Tween-80.

Several values for one entry are separate records, joined by “and”; a condition that tells them apart may be missing. Equal values may be shown once. Inconclusive results and toxic doses are left out.

Turning to `O=C(Nc1ccc(NC2=NCCN2)cc1)c1ccc(C(=O)Nc2ccc(NC3=NCCN3)cc2)c([N+](=O)[O-])c1`, the T/C was 116 % of control (dose: 1.56 mg/kg/injection, schedule: Q01DX005 (ip), vehicle: Klucel (hydroxypropylcellulose) (HPC)); 158 % of control under setting [1]; 158 % of control under setting [2].
In the case of `COC(=O)c1nnn(-c2ccc(Cl)cc2Cl)c1C(=O)c1ccc(Cl)c(Cl)c1`, the T/C under setting [3] was 101 % of control; the T/C under setting [4] is 100 % of control; the T/C (dose: 240.0 mg/kg/injection, schedule: Q01DX005 (ip), vehicle: saline with Tween-80) is 95 % of control.
On to `COc1ccc(/C=C/C(C)=O)c(OC)c1`, for which the T/C was 108 % of control (dose: 100.0 mg/kg/injection, schedule: Q01DX001 (ip), vehicle: Klucel (hydroxypropylcellulose) (HPC)) and 101 % of control (dose: 200.0 mg/kg/injection, schedule: Q01DX001 (ip), vehicle: Klucel (hydroxypropylcellulose) (HPC)).
For the compound `O=C(CN1CCN(c2ccccc2)CC1)n1nnc2ccccc21`, the T/C runs as follows: under setting [3], 93 % of control; under setting [4], 87 % of control.
In the case of `COc1ccc2[nH]cc(/C=C(/C)c3ccncc3)c2c1`, the T/C (dose: 100.0 mg/kg/injection, schedule: Q01DX001 (ip), vehicle: saline with Tween-80) was 102 % of control; the T/C (dose: 200.0 mg/kg/injection, schedule: Q01DX001 (ip), vehicle: saline with Tween-80) was 108 % of control; the T/C (dose: 400.0 mg/kg/injection, schedule: Q01DX001 (ip), vehicle: saline with Tween-80) is 108 % of control.
Take `Cc1cc(C)c(S(=O)(=O)Sc2nnnn2C)c(C)c1`: the T/C is 102 % of control under setting [5]; 104 % of control (dose: 25.0 mg/kg/injection, schedule: Q01DX009 (ip), vehicle: Klucel (hydroxypropylcellulose) (HPC)); 95 % of control and 98 % of control under setting [6]; 98 % of control under setting [7].
`CC1C(=O)C(C)C(c2ccc(Cl)cc2)OC1c1ccc(Cl)cc1` (stereo not given): the T/C reads like this: (dose: 50.0 mg/kg/injection, schedule: Q01DX009 (ip), vehicle: saline) 112 % of control; under setting [8], 103 % of control; (dose: 200.0 mg/kg/injection, schedule: Q01DX009 (ip), vehicle: saline) 114 % of control.
As to `c1ccc2c(Oc3c4ccccc4nc4ccccc34)c3ccccc3nc2c1`, the T/C by setting is: under setting [9], 95 % of control; under setting [10], 88 % of control; under setting [11], 90 % of control.
With `C=C(C)C(=NC(C)C)Nc1ccccc1`, the T/C reads like this: under setting [1], 103 % of control and 104 % of control; under setting [2], 107 % of control and 123 % of control and 96 % of control; (dose: 25.0 mg/kg/injection, schedule: Q01DX005 (ip), vehicle: Klucel (hydroxypropylcellulose) (HPC)) 99 % of control and 104 % of control and 106 % of control.
In the case of `O=[N+]([O-])c1cccnc1S(=O)(=O)c1ccccn1`, the T/C runs as follows: (dose: 6.25 mg/kg/injection, schedule: Q01DX009 (ip), vehicle: Klucel (hydroxypropylcellulose) (HPC)) 100 % of control; under setting [5], 100 % of control.
On to `Cc1cc(O)c(C(C)C)cc1S(=O)(=O)O` (tested in a mixture with another compound), for which the T/C (dose: 100.0 mg/kg/injection, schedule: Q04DX003 (ip), vehicle: saline with Tween-80) is 100 % of control; the T/C (dose: 200.0 mg/kg/injection, schedule: Q04DX003 (ip), vehicle: saline with Tween-80) is 95 % of control and 108 % of control; the T/C (dose: 400.0 mg/kg/injection, schedule: Q04DX003 (ip), vehicle: saline with Tween-80) is 108 % of control.
With `COC(=O)c1ccc(C(=O)OC)c2nc3cc(C)c(C)cc3nc12`, the T/C was 96 % of control (dose: 60.0 mg/kg/injection, schedule: Q01DX005 (ip), vehicle: Klucel (hydroxypropylcellulose) (HPC)) and 98 % of control (dose: 120.0 mg/kg/injection, schedule: Q01DX005 (ip), vehicle: Klucel (hydroxypropylcellulose) (HPC)).
With `COC(=O)C(NP(=O)(NC(C(=O)OC)c1ccccc1)N(CCCl)CCCl)c1ccccc1` (stereo not given), the T/C reads like this: (dose: 7.5 mg/kg/injection, schedule: Q01DX005 (ip), vehicle: saline with Tween-80) 102 % of control; (dose: 15.0 mg/kg/injection, schedule: Q01DX005 (ip), vehicle: saline with Tween-80) 100 % of control; (dose: 30.0 mg/kg/injection, schedule: Q01DX005 (ip), vehicle: saline with Tween-80) 101 % of control.
As to `CSc1nc2ccc(N=Cc3ccc([N+](=O)[O-])cc3)cc2s1`, the T/C is 98 % of control under setting [6]; 86 % of control under setting [12]; 87 % of control and 92 % of control under setting [7].
Turning to `Nc1nnc2nc(CC(=O)c3ccc(F)cc3)c(CC(=O)c3ccc(F)cc3)nn12`, the T/C (dose: 60.0 mg/kg/injection, schedule: Q01DX005 (ip), vehicle: saline) was 104 % of control; the T/C (dose: 120.0 mg/kg/injection, schedule: Q01DX005 (ip), vehicle: saline) was 106 % of control; the T/C (dose: 240.0 mg/kg/injection, schedule: Q01DX005 (ip), vehicle: saline) was 100 % of control.
As for `O=c1c2cc3c(cc2c2cccc4ccn1c42)OCO3`, the T/C is, setting by setting: (dose: 4.5 mg/kg/injection, schedule: Q01DX009 (ip), vehicle: Klucel (hydroxypropylcellulose) (HPC)) 105 % of control; (dose: 9.0 mg/kg/injection, schedule: Q01DX009 (ip), vehicle: Klucel (hydroxypropylcellulose) (HPC)) 115 % of control; (dose: 18.0 mg/kg/injection, schedule: Q01DX009 (ip), vehicle: Klucel (hydroxypropylcellulose) (HPC)) 107 % of control; (dose: 36.0 mg/kg/injection, schedule: Q01DX009 (ip), vehicle: Klucel (hydroxypropylcellulose) (HPC)) 104 % of control.
`O=C(NC(=O)c1cc2cc(Cl)cc(Cl)c2oc1=O)Oc1ccccc1`: the T/C is, setting by setting: under setting [9], 89 % of control; under setting [10], 91 % of control; under setting [11], 98 % of control.
Turning to `CCN(CC)C(Cl)=Nc1ccc(Cl)cc1`, the T/C was 94 % of control under setting [6], 100 % of control under setting [12] and 94 % of control under setting [7].
Consider `O=C1c2ccccc2C(=O)c2c(Cl)ccc(O)c21`, for which the T/C by setting is: (dose: 50.0 mg/kg/injection, schedule: Q01DX009 (ip), vehicle: saline with Tween-80) 98 % of control and 94 % of control; (dose: 100.0 mg/kg/injection, schedule: Q01DX009 (ip), vehicle: saline with Tween-80) 99 % of control and 92 % of control; (dose: 200.0 mg/kg/injection, schedule: Q01DX009 (ip), vehicle: saline with Tween-80) 104 % of control and 112 % of control; (dose: 400.0 mg/kg/injection, schedule: Q01DX009 (ip), vehicle: saline with Tween-80) 111 % of control and 112 % of control.
In the case of `CC(C)=CCC/C(C)=C/CSC#N`, the T/C was 102 % of control under setting [13], 105 % of control under setting [9], 111 % of control under setting [10] and 104 % of control under setting [11].
For `COC(=O)Nc1nc2ccc(C(=O)C3CC3)cc2[nH]1`, the T/C is, setting by setting: (dose: 12.5 mg/kg/injection, schedule: Q01DX005 (ip), vehicle: saline with Tween-80) 111 % of control; under setting [13], 108 % of control; under setting [9], 117 % of control; under setting [10], 180 % of control.
In the case of `CCC[CH2][Sn]([CH2]CCC)([CH2]CCC)[CH2]S(=O)(=O)O`, the T/C is, setting by setting: (dose: 6.25 mg/kg/injection, schedule: Q01DX009 (ip), vehicle: saline) 108 % of control; (dose: 12.5 mg/kg/injection, schedule: Q01DX009 (ip), vehicle: saline) 119 % of control; under setting [8], 116 % of control.
Consider `COC(=O)/C(C#N)=C/c1ccc2c(c1)OCO2`, for which the T/C by setting is: (dose: 50.0 mg/kg/injection, schedule: Q01DX005 (ip), vehicle: Klucel (hydroxypropylcellulose) (HPC)) 100 % of control; (dose: 100.0 mg/kg/injection, schedule: Q01DX005 (ip), vehicle: Klucel (hydroxypropylcellulose) (HPC)) 97 % of control; (dose: 200.0 mg/kg/injection, schedule: Q01DX005 (ip), vehicle: Klucel (hydroxypropylcellulose) (HPC)) 100 % of control.
`C[C@@H]1CC[C@]2(C)CC[C@]3(C)C(=CC[C@@H]4[C@@]5(C)CC[C@H](O)C(C)(C)[C@@H]5CC[C@]43C)[C@@H]2[C@H]1C(=O)O`: the T/C (dose: 0.5 mg/kg/injection, schedule: Q01DX005 (ip), vehicle: DMSO) was 99 % of control; the T/C (dose: 1.0 mg/kg/injection, schedule: Q01DX005 (ip), vehicle: DMSO) was 101 % of control; the T/C (dose: 2.0 mg/kg/injection, schedule: Q01DX005 (ip), vehicle: DMSO) is 100 % of control; the T/C (dose: 4.0 mg/kg/injection, schedule: Q01DX005 (ip), vehicle: DMSO) is 100 % of control and 108 % of control; the T/C (dose: 8.0 mg/kg/injection, schedule: Q01DX005 (ip), vehicle: DMSO) is 98 % of control.
